In patent publication US20070010459A1, “Application of asiatic acid and its derivatives to treat pulmonary fibrosis” (priority 2005, published 2007):

Assays:
[1] = test system: radiation pneumonia and subsequent pulmonary fibrosis induced by Cobalt-60 radiation; experiment: Pharmacodynamics of asiaticoside in radiation pneumonia induced by Cobalt-60 radiation; type: in vivo, rats; parameters: Type IV (collagen content comparison, serum ECM) / Laminin (serum ECM) / Hyaluronic Acid (serum ECM): unit not given here
Experimental: Radiation pneumonia and subsequent pulmonary fibrosis in rats was induced by Cobalt-60 radiation. The efficacies were assessed by the lung weight coefficient, HXP content, serum ECM measurement, CT scan and pathological examinations.

[2] = test system: SD rats; experiment: Embryonic and fetus toxicity and teratogenicity test in SD rats; type: in vivo
Experimental: SD rats were given 120, 380 or 1200 mg/kg of asiaticoside respectively through intragastric administration for 10 consecutive days from day 6-15 of gestation. […] Nor there were any fetus anomalies or obform.

[3] = Pharmacokinetics, tissue distribution and excretion of asiaticoside; type: in vivo, rats; conditions: rats, asiaticoside gavage, highest dose (100 mg/kg)
Experimental: Three doses of asiaticoside (10, 33, 100 mg/kg) were gavaged to rats (n=6) and canines (n=4). After dosing, blood was sampled up to 120 or 216 hours in rats and canines respectively. Tissue distribution and excretion studies in rats were carried out with the highest dose.
The respective asiaticoside and asiatic acid in the same bio-matrix were detected by LC/MS/MS and GC/MS. Because the secondary peak resembled a plasma concentration-time profile in both rat and canine rather than conventional compartment fitting, statistical moment analysis was used in calculating pharmacokinetic parameters. […] In addition to the targeted organ, both asiaticoside and asiatic acid were distributed in some other organs, which could be the sign to expand clinical indications.

[4] = test system: Beagle dogs; experiment: Chronic toxicity study in Beagle dogs; type: in vivo
Experimental: Beagle dogs were given 18, 72 or 240 mg/kg asiaticoside respectively daily for 9 consecutive months along with a control group.

[5] = test system: primary culture of mice fibroblast; experiment: bFGF-stimulated proliferation of primary fibroblast culture; type: cell-based; conditions: bFGF 0.5 g/ml; tested at 25, 12.5, 6.25, 3.125 or 1.56 μg
Experimental: Using bFGF (0.5 µg/ml), the proliferation of primary culture of mice fibroblast with the presence of asiaticoside or asiatic acid at 25, 12.5, 6.25, 3.125 or 1.56 μg respectively was assessed.

[6] = test system: Beagle dogs; experiment: Acute toxicity study in Beagle dogs; type: in vivo; conditions: single administration
Text: Therefore the highest dosage was given to the animal. […] Food uptake and activity were normal in the observation period.

[7] = PK study: plasma asiaticoside and asiatic acid after intragastric asiaticoside; type: in vivo, SD rats; conditions: asiaticoside 100 mg/kg intragastric; 0.5-24 hours; LC/MS
Experimental: SD rats were given asiaticoside through intragastric administration at 100 mg/kg. The blood samples were taken 0.5, 1, 2, 4, 6, 9, 12 and 24 hours after administration respectively. Plasma samples were prepared and analyzed for asiaticoside and asiatic acid concentration by LC/MS or GC/MS respectively. […] The plasma concentration of asiatic acid peaked after 4-6 hours after administration.

[8] = test system: SD rats; experiment: General reproductive toxicity study in rats; type: in vivo
Experimental: SD rats were intragastric administrated with 120, 380 or 1200 mg/kg of asiaticoside respectively. Male and female were given 4 weeks or two weeks of asiaticoside before combining the cages. The male ones were given 5 additional weeks of asiaticoside, while female ones were given the drug till the 15th day of gestation. […] Weight, contour, internal organs and skeleton of fetus were all normal.

[9] = test system: rats with pulmonary fibrosis induced by bleomycin; experiment: Pharmacodynamics of asiaticoside in rats with pulmonary fibrosis induced by bleomycin; type: in vivo
Experimental: The rats with lung fibrosis were induced by bleomycin through trachea administration and then treated with asiaticoside. […] The study regimen lasted for 28 days. The lung weight coefficient and hydroyproline (HXP) content were measured on day 2 and 8 after the formation of animal model. CT scan, pathology and serum ECM content measurements were conducted on day 14, 21 and 28 days respectively.

[10] = asiaticoside, range over 3 doses (4, 12, 36 mg/kg)

With `C[C@H]1[C@H](C)CC[C@]2(C(=O)O[C@@H]3O[C@H](CO[C@@H]4O[C@H](CO)[C@@H](O[C@@H]5O[C@H](C)[C@H](O)[C@@H](O)[C@H]5O)[C@H](O)[C@H]4O)[C@@H](O)[C@H](O)[C@H]3O)CC[C@]3(C)C(=CC[C@@H]4[C@@]5(C)C[C@@H](O)[C@H](O)[C@@](C)(CO)[C@@H]5CC[C@]43C)[C@H]12` [Asiaticoside, asiaticoside] the HXP content ([1]; asiaticoside 4 mg/kg) was 40.88 ± 9.77 mg/g, the “Hyaluronic Acid (serum ECM)” value ([1]; asiaticoside 4 mg/kg) was 259.01 ± 64.39 and the “Laminin (serum ECM)” value ([1]; asiaticoside 4 mg/kg) was 39.21 ± 5.69. The Lung weight coefficient ([1]; asiaticoside 4 mg/kg) was 0.42%, the “PIIIP (collagen content comparison, serum ECM)” value (“PIIIP” below) ([1]; asiaticoside 4 mg/kg) was 21.00 ± 9.50 and the “Type IV (collagen content comparison, serum ECM)” value (“Type IV” for short) ([1]; asiaticoside 4 mg/kg) was 14.74 ± 4.03. For the same compound, the HXP content ([1]; asiaticoside 12 mg/kg) was 32.78 ± 4.37 mg/g, the “Hyaluronic Acid (serum ECM)” value ([1]; asiaticoside 12 mg/kg) was 246.91 ± 33.2 and the “Laminin (serum ECM)” value ([1]; asiaticoside 12 mg/kg) was 41.11 ± 9.15. For the same compound, the Lung weight coefficient ([1]; asiaticoside 12 mg/kg) was 0.20%, the “PIIIP” value ([1]; asiaticoside 12 mg/kg) was 18.84 ± 10.70 and the “Type IV” value ([1]; asiaticoside 12 mg/kg) was 11.97 ± 4.09. The HXP content ([1]; asiaticoside 36 mg/kg) was 31.38 ± 4.75 mg/g, the “Hyaluronic Acid (serum ECM)” value ([1]; asiaticoside 36 mg/kg) was 220.64 ± 67.55 and the “Laminin (serum ECM)” value ([1]; asiaticoside 36 mg/kg) was 48.29 ± 10.67. The Lung weight coefficient ([1]; asiaticoside 36 mg/kg) was 0.34%, the “PIIIP” value ([1]; asiaticoside 36 mg/kg) was 14.27 ± 10.40 and the “Type IV” value ([1]; asiaticoside 36 mg/kg) was 10.04 ± 5.69. The CT scan findings ([1]; high dose asiaticoside group) was “a few fibrotic streaks”, the CT scan findings ([1]; low dose asiaticoside group) was “mild ground glass infiltration and atelectasis in the right lower lung” and the CT scan findings ([1]; median dose asiaticoside group) was “mild ground glass infiltration and fibrotic streaks in the right lung”. For the same compound, the Overall efficacy ([1]; pulmonary fibrosis induced by radiation) was “efficacious in treating pulmonary fibrosis induced by radiation to certain extent”, the “Dose without embryonic and fetus toxicity as multiple of effective dose (6 mg/kg) in mice” value ([2]; 1.2 g/kg) was 200 × and the “Incidence rate of enlargement of fetus pelvis renalis” value ([2]; 1.2 g/kg) was “increased, yet this was not statistically significant”. For the same compound, the “Embryonic and fetus toxicity” value ([2]; 120, 380 or 1200 mg/kg intragastric, day 6-15 of gestation) was “no embryonic and fetus toxicity”, the “Dose with no embryonic and fetus toxicity” value ([2]; intragastric, day 6-15 of gestation) was 1200 mg/kg and the Main excretion route [3] was “feces, bile and urine”. For the same compound, the Tissue accumulation [3] was “no apparent tissue accumulation”, the “Nontoxic dose as multiple of proposed clinical dosage in human” value ([4]; 240 mg/kg/d) was 40 × and the Nontoxic dose ([4]; 9-month chronic toxicity study, 18, 72 or 240 mg/kg daily) was 240 mg/kg/day. For the same compound, the “Toxicity observations (behavior, activity, weight, mental state, excrement and urine)” value ([4]; 18, 72 or 240 mg/kg daily for 9 consecutive months) was “no apparent toxicity”, the “Inhibitory activity on fibroblast proliferation” value [5] was “no apparent inhibitory activity” and the “Highest dose given, no toxicity observed (no acute LD50 could be measured)” value [6] was 10000 mg/kg. For the same compound, the “Plasma concentration of asiaticoside” value [7] was “only trace quantity”, the “Clinical observation in male and female animals” value ([8]; 1.2 g/kg) was “bleeding around apertura narium” and the Reproductive toxicity ([8]; 120, 380 or 1200 mg/kg intragastric) was “no reproductive toxicity”. For the same compound, the HXP content ([9]; asiaticoside 4 mg/kg, 28 days) was 19.63 ± 3.91 mg/g, the Lung weight coefficient ([9]; asiaticoside 4 mg/kg, 28 days) was 0.63% and the HXP content ([9]; asiaticoside 12 mg/kg, 28 days) was 18.95 ± 7.00 mg/g. It also gave a Lung weight coefficient ([9]; asiaticoside 12 mg/kg, 28 days) of 0.66%, an HXP content ([9]; asiaticoside 36 mg/kg, 28 days) of 18.56 ± 3.98 mg/g and a Lung weight coefficient ([9]; asiaticoside 36 mg/kg, 28 days) of 0.64%. For the same compound, the Pathology ([9]; asiaticoside 4, 12, 36 mg/kg) was “light fibroplasias in alveoli pulmonis diaphragm, light lymphocyte infiltration and compensatory emphysema”, the CT scan findings ([9]; asiaticoside 4, 12, 36 mg/kg, not dose dependent) was “ground glass infiltration in the lung tissue was found, but was significantly less than in the model group” and the Overall efficacy ([9]; asiaticoside 4, 12 and 36 mg/kg, 28 days) was “efficacious in preventing and treating lung fibrosis induced by bleomycin to certain extent”. The “ET-1 (cytokine content)” value [9, 10] was 229.62-241.60, the “Hyaluronic Acid (serum ECM)” value [9, 10] was 112.66-312.28 and the “Laminin (serum ECM)” value [9, 10] was 43.83-55.75. The “PIIIP” value [9, 10] was 13.87-24.54, the “TNF-α (cytokine content)” value [9, 10] was 5.20-6.49 and the “TNF-[…] (cytokine content)” value [9, 10] was 0.067-0.077. For the same compound, the “Type IV” value [9, 10] was 4.33-10.45.
